We go through 32 molecules from patent US8614206B2 (Genentech, Inc., priority 2011, dated 2013).

For this test, the target named is PIM1 (Homo sapiens (Human), UniProt P11309). The experiment in a line: Pim kinase inhibition, PIM1 LC3K (Example 901). The format is biochemical.

SMILES strings stand for the structures.

In general, Ki refers to the dissociation constant of the complex between target and ligand, obtained from inhibition or displacement.

PIM1, sequence (P11309 whole entry): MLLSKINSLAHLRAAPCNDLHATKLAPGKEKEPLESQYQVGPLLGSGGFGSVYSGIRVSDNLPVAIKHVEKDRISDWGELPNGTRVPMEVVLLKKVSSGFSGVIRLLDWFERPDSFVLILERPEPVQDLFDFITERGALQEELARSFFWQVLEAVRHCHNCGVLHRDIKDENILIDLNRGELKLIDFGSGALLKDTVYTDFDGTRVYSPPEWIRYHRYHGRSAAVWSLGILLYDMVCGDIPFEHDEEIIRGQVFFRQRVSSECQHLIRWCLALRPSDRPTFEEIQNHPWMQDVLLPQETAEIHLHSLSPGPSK
Text: Determination of the Pim kinase activity of a Formula I compound is possible by a number of direct and indirect detection methods.

As to `Cn1ncc(NC(=O)c2nc(-c3c(F)cccc3F)sc2N)c1N1CCC(N)C2(CCO2)CC1` (single isomer, unassigned) [Example 497, 5-amino-N-[5-(5-amino-1-oxa-8-azaspiro[3.6]decan-8-yl)-1-methyl-pyrazol-4-yl]-2-(2,6-difluorophenyl)thiazole-4-carboxamide], the Ki turned out to be 0.268 nM.
On to `Cn1ncc(NC(=O)c2nc(-c3ccccc3F)cnc2N)c1N1CC[C@@H](N)CC(F)(F)C1` (single isomer, unassigned) [Example 248], for which the affinity corresponds to a Ki of 0.007 nM.
As to `Nc1sc(-c2c(F)cccc2F)nc1C(=O)Nc1cnn(CC(F)F)c1N1CCCC[C@@H](N)C1` [Example 104, (R)-5-amino-N-(5-(3-aminoazepan-1-yl)-1-(2,2-difluoroethyl)-1H-pyrazol-4-yl)-2-(2,6-difluorophenyl)thiazole-4-carboxamide], the affinity, expressed as Ki, was 0.091 nM.
Take `COC1CCN(c2c(NC(=O)c3nc(-c4c(F)cccc4F)sc3N)cnn2C2CC2)CCC1N` (single isomer, unassigned) [Example 404, 5-amino-N-[5-(4-amino-5-methoxy-azepan-1-yl)-1-cyclopropyl-pyrazol-4-yl]-2-(2,6-difluorophenyl)thiazole-4-carboxamide]: the Ki was determined as 0.036 nM.
In turn, `Cn1ncc(NC(=O)c2nc(-c3ccccc3F)ccc2N)c1N1CCC(N)C(F)CC1` (single isomer, unassigned) [Example 245, 3-amino-N-(5-(4-amino-5-fluoroazepan-1-yl)-1-methyl-1H-pyrazol-4-yl)-6-(2-fluorophenyl)picolinamide] displayed a Ki of 0.173 nM. Against the preceding molecule, the Ki is about 4.8-fold higher.
The figure for `Cn1ncc(NC(=O)c2nc(-c3ccccc3F)ccc2N)c1N1CC[C@@H](N)CC(F)(F)C1` [Example 250, (R)-3-amino-N-(5-(5-amino-3,3-difluoroazepan-1-yl)-1-methyl-1H-pyrazol-4-yl)-6-(2-fluorophenyl)picolinamide] is 0.03 nM.
The value for `COC1(C)CC(N)CCN(c2c(NC(=O)c3nc(-c4c(F)cncc4F)sc3N)cnn2C)C1` (centres unmarked) [Example 474, 5-amino-N-[5-(5-amino-3-methoxy-3-methyl-azepan-1-yl)-1-methyl-pyrazol-4-yl]-2-(3,5-difluoro-4-pyridyl)thiazole-4-carboxamide] was 0.425 nM.
The value for `Nc1sc(-c2c(F)cccc2F)nc1C(=O)Nc1cnn(CC(F)(F)F)c1N1CCCCC(N)C1` (centres unmarked) [Example 303, 5-Amino-2-(2,6-difluoro-phenyl)-thiazole-4-carboxylic acid [5-(3-amino-azepan-1-yl)-1-(2,2,2-trifluoro-ethyl)-1H-pyrazol-4-yl]-amide] was 0.208 nM.
In turn, `CCn1ncc(NC(=O)c2nc(-c3c(F)cccc3F)sc2N)c1N1CCC(N)C(OC)CC1` (single isomer, unassigned) [Example 389, 5-amino-N-[5-(4-amino-5-methoxy-azepan-1-yl)-1-ethyl-pyrazol-4-yl]-2-(2,6-difluorophenyl)thiazole-4-carboxamide] showed a Ki of 0.624 nM.
The figure for `Cc1ccc(F)c(-c2nc(C(=O)Nc3cnn(C)c3N3CC[C@@H](N)CC(F)(F)C3)c(N)s2)c1` [Example 285] is 0.018 nM; for `Nc1sc(-c2cc(F)ccc2F)nc1C(=O)Nc1cnn(C2CC2)c1N1CCC(N)C(F)CC1` (centres unmarked) [Example 339, 5-amino-N-[5-(4-amino-5-fluoro-azepan-1-yl)-1-cyclopropyl-pyrazol-4-yl]-2-(2,5-difluorophenyl)thiazole-4-carboxamide] it is 0.226 nM; for `COC1CCN(c2c(NC(=O)c3nc(-c4c(F)cccc4F)sc3N)cnn2C2CC2)CCC1N` (single isomer, unassigned) [Example 403, 5-amino-N-[5-(4-amino-5-methoxy-azepan-1-yl)-1-cyclopropyl-pyrazol-4-yl]-2-(2,6-difluorophenyl)thiazole-4-carboxamide] it is 0.21 nM.
The value for `Cc1ccc(F)c(-c2nc(C(=O)Nc3cnn(C)c3N3CC[C@@H](F)[C@@H](N)CC3)c(N)s2)c1` [Example 272, 5-amino-N-(5-((4S,5R)-4-amino-5-fluoroazepan-1-yl)-1-methyl-1H-pyrazol-4-yl)-2-(2-fluoro-5-methylphenyl)thiazole-4-carboxamide] was 0.147 nM.
The figure for `CCn1ncc(NC(=O)c2nc(-c3c(F)cccc3F)sc2N)c1N1CC[C@H](N)[C@H](OC)CC1` [Example 376, 5-amino-N-(5-((4S,5R)-4-amino-5-methoxyazepan-1-yl)-1-ethyl-1H-pyrazol-4-yl)-2-(2,6-difluorophenyl)thiazole-4-carboxamide] is 0.223 nM; for `COC1CCN(c2c(NC(=O)c3nc(-c4c(F)cccc4F)sc3N)cnn2C2CC2)CCC1N` (single isomer, unassigned) [Example 401, 5-amino-N-[5-(4-amino-5-methoxy-azepan-1-yl)-1-cyclopropyl-pyrazol-4-yl]-2-(2,6-difluorophenyl)thiazole-4-carboxamide] it is 0.059 nM.
In the case of `Cc1ccc(F)c(-c2nc(C(=O)Nc3cnn(C4CC4)c3N3CCC(N)C(F)CC3)c(N)s2)c1` (centres unmarked) [Example 330, 5-amino-N-[5-(4-amino-5-fluoro-azepan-1-yl)-1-cyclopropyl-pyrazol-4-yl]-2-(2-fluoro-5-methyl-phenyl)thiazole-4-carboxamide], the Ki turned out to be 0.087 nM.
The figure for `Cn1ncc(NC(=O)c2nc(-c3c(F)cccc3F)sc2N)c1N1CCC[C@H](N(CCO)CCO)CC1` [Example 336, 5-amino-N-[5-[(4S)-4-[bis(2-hydroxyethyl)amino]azepan-1-yl]-1-methyl-pyrazol-4-yl]-2-(2,6-difluorophenyl)thiazole-4-carboxamide] is 0.199 nM; for `Cn1ncc(NC(=O)c2nc(-c3cccc(O)n3)sc2N)c1N1CCC[C@H](N)CC1` [Example 393, 5-amino-N-[5-[(4S)-4-aminoazepan-1-yl]-1-methyl-pyrazol-4-yl]-2-(6-hydroxy-2-pyridyl)thiazole-4-carboxamide] it is 14 nM; for `Cn1ncc(NC(=O)c2nc(-c3c(F)cccc3F)sc2N)c1N1CCC[C@H](N(CC2COC2)CC2COC2)CC1` [Example 343, 5-amino-N-[5-[(4S)-4-[bis(oxetan-3-ylmethyl)amino]azepan-1-yl]-1-methyl-pyrazol-4-yl]-2-(2,6-difluorophenyl)thiazole-4-carboxamide] it is 0.962 nM.
The value for `Cn1ncc(NC(=O)c2nc(-c3cncc(F)c3)sc2N)c1N1CCC[C@H](N)CC1` [Example 420, 5-amino-N-[5-[(4S)-4-aminoazepan-1-yl]-1-methyl-pyrazol-4-yl]-2-(5-fluoro-3-pyridyl)thiazole-4-carboxamide] was 4.25 nM.
`Cn1ncc(NC(=O)c2nc(-c3ccccc3F)sc2N)c1N1CCNCC2(CCO2)C1` (racemic) [Example 477, 5-amino-2-(2-fluorophenyl)-N-[1-methyl-5-(1-oxa-6,9-diazaspiro[3.6]decan-6-yl)pyrazol-4-yl]thiazole-4-carboxamide] yielded a Ki of 0.188 nM.
The figure for `Cn1ncc(NC(=O)c2nc(-c3ccnc(F)c3)sc2N)c1N1CCC[C@H](N)CC1` [Example 417, 5-amino-N-[5-[(4S)-4-aminoazepan-1-yl]-1-methyl-pyrazol-4-yl]-2-(2-fluoro-4-pyridyl)thiazole-4-carboxamide] is 2.12 nM.
The figure for `Cn1ncc(NC(=O)c2nc(-c3cncc(C#N)c3)sc2N)c1N1CC[C@@H](N)[C@H](F)CC1` [Example 444, 5-amino-N-[5-[(4R,5R)-4-amino-5-fluoro-azepan-1-yl]-1-methyl-pyrazol-4-yl]-2-(5-cyano-3-pyridyl)thiazole-4-carboxamide] is 35.4 nM; for `Cn1ncc(NC(=O)c2nc(-c3ccccc3F)ccc2N)c1N1CCC(N)CC(F)(F)C1` (racemic) [Example 292, 3-amino-N-(5-(5-amino-3,3-difluoroazepan-1-yl)-1-methyl-1H-pyrazol-4-yl)-6-(2-fluorophenyl)picolinamide] it is 0.021 nM; for `Cc1ccc(F)c(-c2nc(C(=O)Nc3cnn(CC(F)F)c3N3CCCC(O)CC3)c(N)s2)c1` (centres unmarked) [Example 111, 5-Amino-N-(1-(2,2-difluoroethyl)-5-(4-hydroxyazepan-1-yl)-1H-pyrazol-4-yl)-2-(2-fluoro-5-methylphenyl)thiazole-4-carboxamide] it is 0.079 nM.
The value for `Cn1ncc(NC(=O)c2nc(-c3cc(F)ccc3F)sc2N)c1N1CC[C@@H](N)[C@@H](F)CC1` [Example 271, 5-amino-N-(5-((4R,5S)-4-amino-5-fluoroazepan-1-yl)-1-methyl-1H-pyrazol-4-yl)-2-(2,5-difluorophenyl)thiazole-4-carboxamide] was 0.058 nM; that for `Cn1ncc(NC(=O)c2nc(-c3c(F)cccc3F)sc2N)c1N1CCNCC(C#N)C1` (centres unmarked) [Example 382, 5-amino-N-[5-(6-cyano-1,4-diazepan-1-yl)-1-methyl-pyrazol-4-yl]-2-(2,6-difluorophenyl)thiazole-4-carboxamide] was 2.81 nM; that for `Cn1ncc(NC(=O)c2nc(-c3c(F)cccc3F)sc2N)c1N1CCC2(CCNC2=O)CC1` [Example 360, 5-amino-2-(2,6-difluorophenyl)-N-[1-methyl-5-(1-oxo-2,8-diazaspiro[4.5]decan-8-yl)pyrazol-4-yl]thiazole-4-carboxamide] was 0.391 nM.
For the molecule `CCn1ncc(NC(=O)c2nc(-c3ccccc3F)sc2N)c1N1CCC(N)C(F)CC1` (single isomer, unassigned) [Example 374, 5-amino-N-[5-(4-amino-5-fluoro-azepan-1-yl)-1-ethyl-pyrazol-4-yl]-2-(2-fluorophenyl)thiazole-4-carboxamide], the affinity, expressed as Ki, was 0.346 nM.
Regarding `Cc1ccc(F)c(-c2nc(C(=O)Nc3cnn(C)c3N3CC[C@H](N)CC(F)(F)C3)c(N)s2)c1` [Example 284, (S)-5-amino-N-(5-(5-amino-3,3-difluoroazepan-1-yl)-1-methyl-1H-pyrazol-4-yl)-2-(2-fluoro-5-methylphenyl)thiazole-4-carboxamide], the affinity, expressed as Ki, was 0.015 nM.
The value for `Nc1sc(-c2c(F)cccc2F)nc1C(=O)Nc1cnn(CC2COC2)c1N1CCNCC1` [Example 251, 5-Amino-2-(2,6-difluoro-phenyl)-thiazole-4-carboxylic acid (1-oxetan-3-ylmethyl-5-piperazin-1-yl-1H-pyrazol-4-yl)-amide] was above 667 nM.
The figure for `Nc1sc(-c2c(F)cccc2F)nc1C(=O)Nc1cnn(CC(F)F)c1N1CC[C@H](N)CC(F)(F)C1` (single isomer, unassigned) [Example 280] is 0.01 nM.
